Results on 17 compounds are retold here after PubChem BioAssay (NCI).

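96-well plates; 48 h exposure; 5 concentrations. Endpoints by linear interpolation between flanking doses. Not reached: highest tested concentration assigned. At the GI50, growth is halved. TGI: total growth inhibition.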 Bounds are passed on as bounds.

Some test systems named below: HL-60(TB) leukemia; LOX IMVI melanoma; SF-268 CNS; SF-539 CNS; U251 CNS; UACC-257 melanoma; UACC-62 melanoma; CAKI-1 renal; CCRF-CEM leukemia; MDA-MB-231 breast.
Common to all, as to assay: DTP human tumour cell line panel, 48 h

Broadly, the TGI is the concentration giving total growth inhibition. Take `O=S(=O)([O-])[O-].[Fe+2].[OH2+]c1c(Cl)cc(Cl)cc1/C=N/Nc1ccccn1`: the TGI in the test on HL-60(TB) leukemia was 2.92 µM; in the test on LOX IMVI melanoma, 2.79 µM; in the test with SF-268 CNS it was 1.94 µM; with SF-539 CNS it was 1.27 µM; in the test with U251 CNS it was 2.74 µM; in the test with UACC-257 melanoma it was 2.63 µM. In the test on UACC-62 melanoma, this compound gave a TGI of 3.38 µM.
`CC(=O)[C@]12OC(=O)C3=C1[C@H](CC[C@@H]3C)[C@@H](C)C[C@H]2C=C(C)C`: the TGI came out at 13 µM with CAKI-1 renal; 22.6 µM in the test with CCRF-CEM leukemia; 16 µM in the test with HL-60(TB) leukemia; 15.2 µM with LOX IMVI melanoma; 15.6 µM in the test on MDA-MB-231 breast; 15.8 µM in the test with SF-268 CNS. For the same compound, the TGI in the test with SF-539 CNS amounted to 16.5 µM; in the test on U251 CNS, 14.9 µM; with UACC-257 melanoma, 21 µM; in the test on UACC-62 melanoma, 12.6 µM.
`O=C1O/C(=C\C=C\CO)C=C1/C=C/CO`: the TGI is 28.3 µM in the test on CAKI-1 renal; 60.3 µM in the test on CCRF-CEM leukemia; 54.7 µM in the test with HL-60(TB) leukemia; above 100 µM in the test with LOX IMVI melanoma; 52.8 µM with MDA-MB-231 breast; 58.2 µM in the test with SF-268 CNS. For the same compound, the TGI is 55 µM in the test with SF-539 CNS, above 100 µM in the test with U251 CNS and 39.8 µM in the test with UACC-62 melanoma.
In the case of `N=C(N)SCCN1CCCCC1`, the TGI in the test with CAKI-1 renal is 72.9 µM; in the test on HL-60(TB) leukemia, 46.3 µM; in the test with LOX IMVI melanoma it was 48.4 µM; in the test on MDA-MB-231 breast, 44.6 µM; in the test with SF-268 CNS it was above 100 µM; with SF-539 CNS, 84.1 µM. The TGI in the test on U251 CNS is 44 µM; in the test on UACC-257 melanoma, 41.6 µM; in the test with UACC-62 melanoma, 55.2 µM.
For the compound `NC(=S)N/N=C1\CC(c2ccccc2)Nc2ccccc21` (configuration not stated), the TGI with CAKI-1 renal was above 100 µM; with CCRF-CEM leukemia, above 100 µM; in the test with HL-60(TB) leukemia, 31.3 µM; in the test on LOX IMVI melanoma it was above 100 µM; with SF-268 CNS, above 100 µM; in the test on SF-539 CNS, above 100 µM. Moreover, the concentration for total growth inhibition (TGI) in the test on U251 CNS and in the test with UACC-62 melanoma was above 100 µM each time.
For the compound `Nc1ccc(S(=O)(=O)NCCS(=O)(=O)O)cc1`, the TGI in the test with CAKI-1 renal, in the test on CCRF-CEM leukemia, in the test on HL-60(TB) leukemia, in the test with LOX IMVI melanoma, with MDA-MB-231 breast and in the test with SF-268 CNS was above 100 µM in each case. Further, the TGI in the test with U251 CNS, with UACC-257 melanoma and in the test on UACC-62 melanoma was above 100 µM in each case.
The term GI50 denotes the concentration giving 50% growth inhibition. `Cc1cccc(/C=C2/C(=O)Nc3ccccc32)n1`: the TGI is 37.8 µM in the test on CAKI-1 renal; above 85.9 µM with CCRF-CEM leukemia; 39.8 µM in the test on HL-60(TB) leukemia; above 62.6 µM with LOX IMVI melanoma; 34.3 µM in the test on MDA-MB-231 breast; 42.5 µM in the test with SF-268 CNS. Further, the TGI in the test with SF-539 CNS was 51.4 µM; with U251 CNS, above 65.9 µM; in the test on UACC-257 melanoma it was 30.1 µM; in the test on UACC-62 melanoma it was 25.8 µM. Besides, the results for the GI50 in the test with MDA-MB-231 breast and in the test on UACC-62 melanoma were 11.6 µM and 10.2 µM, respectively.
For `CCCCCCCCc1ccc(CCC(N)(CO)CO)cc1`, the GI50 with CAKI-1 renal is 2.64 µM; in the test on HL-60(TB) leukemia it was 1.32 µM; in the test on MDA-MB-231 breast it was 0.521 µM; in the test with SF-539 CNS, 1.85 µM; in the test on U251 CNS it was 1.8 µM; in the test on UACC-257 melanoma it was 2.23 µM. Also, the GI50 in the test on UACC-62 melanoma was 1.72 µM. Also, the TGI in the test with CAKI-1 renal came to 6.56 µM; in the test on HL-60(TB) leukemia, 3.03 µM; in the test on MDA-MB-231 breast, 1.98 µM; in the test with SF-539 CNS, 3.39 µM; with U251 CNS, 3.32 µM; in the test with UACC-257 melanoma, 5.01 µM. Besides, the TGI with UACC-62 melanoma was found to be 3.31 µM.
As for `COc1cc(O)c2c(=O)c(OC)c(-c3ccc(OC)c(OC)c3)oc2c1.[Zn+2]`, the TGI is above 100 µM with CAKI-1 renal; above 100 µM in the test with HL-60(TB) leukemia; above 100 µM in the test with LOX IMVI melanoma; 65.4 µM in the test with MDA-MB-231 breast; above 100 µM with SF-268 CNS; above 100 µM with SF-539 CNS. The TGI in the test on UACC-62 melanoma was above 100 µM. Moreover, the GI50 with LOX IMVI melanoma is 7.68 µM; in the test with MDA-MB-231 breast, 3.83 µM; in the test with SF-268 CNS, 12.9 µM; in the test on UACC-62 melanoma, 11.7 µM.
On to `Cc1ncc(COP(=O)(O)O)c(C)c1O`, for which the TGI in the test with CAKI-1 renal, with HL-60(TB) leukemia, with LOX IMVI melanoma, with MDA-MB-231 breast, in the test with SF-268 CNS and in the test on U251 CNS was above 100 µM throughout. The TGI in the test on UACC-257 melanoma and with UACC-62 melanoma was above 100 µM in each case.
Turning to `CC(=O)C(N=NC1CCC(S(=O)(=O)NB2N=CS2)CC1)C(=O)Nc1ccccc1C` (configuration not stated), the TGI is 46.9 µM in the test on CAKI-1 renal; above 100 µM in the test with CCRF-CEM leukemia; above 100 µM in the test with HL-60(TB) leukemia; 30.8 µM in the test on SF-268 CNS; 32.4 µM in the test on SF-539 CNS; 26.6 µM in the test on U251 CNS. Also, the values for the TGI with UACC-257 melanoma and in the test on UACC-62 melanoma were 45.1 µM and 34.8 µM, respectively.
For the compound `C[N+]1(c2ccccc2)C=C(c2ccccc2)SC1=S` (configuration not stated), the TGI in the test with CAKI-1 renal, in the test with HL-60(TB) leukemia, in the test with LOX IMVI melanoma, with MDA-MB-231 breast, in the test with SF-268 CNS and with SF-539 CNS was above 100 µM in each case. The concentration for total growth inhibition (TGI) in the test with U251 CNS, in the test with UACC-257 melanoma and in the test on UACC-62 melanoma was above 100 µM in each case.
For the compound `O=C(/C=C/c1ccc(O)cc1)c1cc(-c2cc(CCC(=O)c3ccc(O)cc3O)ccc2O)c(O)cc1O`, the TGI is above 50 µM with CAKI-1 renal; 43.6 µM in the test on CCRF-CEM leukemia; above 50 µM in the test on HL-60(TB) leukemia; above 50 µM in the test with LOX IMVI melanoma; above 50 µM in the test with MDA-MB-231 breast; above 50 µM in the test with SF-268 CNS. Also, the TGI in the test on SF-539 CNS is 24.8 µM; in the test on U251 CNS, above 50 µM; with UACC-257 melanoma it was above 50 µM; with UACC-62 melanoma, above 50 µM.
As for `C[N+]1(C)C/C(=C\c2ccc(O)cc2)C(=O)/C(=C/c2ccc(O)cc2)C1`, the TGI with CAKI-1 renal, with CCRF-CEM leukemia, with HL-60(TB) leukemia, with LOX IMVI melanoma, in the test on SF-268 CNS and with SF-539 CNS was above 100 µM throughout. Further, the TGI with U251 CNS, in the test with UACC-257 melanoma and in the test on UACC-62 melanoma was above 100 µM in each case.
For `C=C(C[C@@H](O)[C@H](C)NC(=O)OCc1ccccc1)C(=O)OC(C)(C)C`, the TGI in the test on CAKI-1 renal was above 100 µM; with CCRF-CEM leukemia it was 61.7 µM; in the test with HL-60(TB) leukemia, above 100 µM; with LOX IMVI melanoma, above 100 µM; with MDA-MB-231 breast, above 100 µM; in the test with SF-268 CNS, above 100 µM. The TGI with SF-539 CNS, in the test on U251 CNS, with UACC-257 melanoma and in the test on UACC-62 melanoma was above 100 µM throughout.
On to `CCOc1ccc(N=Nc2ccc(-c3ccc(N=Nc4c(O)ccc5cc(S(=O)(=O)O)cc(S(=O)(=O)O)c45)cc3)cc2)cc1`, for which the TGI in the test on CAKI-1 renal, in the test on CCRF-CEM leukemia, with HL-60(TB) leukemia, in the test on MDA-MB-231 breast, in the test with SF-268 CNS and in the test on SF-539 CNS was above 100 µM each time. Besides, the TGI with U251 CNS, with UACC-257 melanoma and in the test with UACC-62 melanoma was above 100 µM in each case.
With `CC(=O)c1c(C)cc2cccc(OC3OC(CO)C(O)C(O)C3O)c2c1O` (configuration not stated) (tested in a mixture with another compound), the TGI in the test with CAKI-1 renal, in the test on CCRF-CEM leukemia, in the test with HL-60(TB) leukemia, with LOX IMVI melanoma, with MDA-MB-231 breast and with SF-268 CNS was above 100 µM throughout. The TGI with SF-539 CNS, in the test with U251 CNS, in the test with UACC-257 melanoma and in the test on UACC-62 melanoma was above 100 µM in each case.
